Test results from patent US11807852B2, “Compositions and methods for reactivating latent immunodeficiency virus” (The J. David Gladstone Institutes, a testamentary trust …, priority 2014, dated 2023).
Entries after “also recorded” stand apart in the source; their conditions may differ. Read-outs that look alike come from different tables or passages of the source.

Columns and labels:
J-Lat 5A8 cells = assay: SMYD5 shRNA knockdown in J-Lat 5A8 cells (qPCR, GFP flow cytometry); assay type: cell-based; details: for SMYD5 knockdown efficiency by qPCR: J-Lat 5A8 cells; for reactivation of viral latency (GFP) after CD3/28 antibody stimulation: suboptimal, medium or saturating doses, 24 hours
Method: ShRNA-expressing lentiviral vectors were purchased from Sigma-Aldrich. The plasmids TRCN000155095 (Target sequence: […]) (SEQ ID NO:76) and TRCN0000156306 (Target sequence: […]) (SEQ ID NO:77) were used to deplete SMYD5. The pLKO. I vector containing a scrambled shRNA was used as control. […]; 272:263-7), and titered for p24 content. […] Data were analyzed using FlowJo 9.5 (Tree Star).
RNA was isolated using RNeasy Plus Mini Kit (Qiagen) and reverse-transcribed using SuperScript III Reverse Transcriptase (Invitrogen) as per the manufacturer's instructions. Quantitative RT-PCR was carried out using Maxima SYBR Green qPCR Master Mix (Thermo Scientific) on SDS 2.4 software (Applied Biosystems) in a total volume of 12 μL. Primer efficiencies were around 100%. Dissociation curve analysis was performed after the end of the PCR to confirm the presence of a single and specific product.
To confirm results from the shRNA screen, SMYD5 was individually knocked down in J-Lat 5A8 cells. Cells were transduced with lentiviral vectors expressing two different shRNAs targeting SMYD5 or a scrambled control shRNA, followed by puromycin treatment to select successfully transduced cells. The shRNA knockdown was confirmed using qPCR and failed for #1 and was ˜50% effective for #2 (FIG. 26A). Cells were then stimulated with suboptimal, medium, or saturating doses of CD3/28 antibodies or were left unstimulated for 24 hours, followed by flow cytometry of GFP. […] To test effects of SMYD5 on basal HIV-1 transcription we analyzed RNAs from nonactivated control and SMYD5 knockdown cells with primers specific for the viral LTR; mRNAs for SMYD5 and the NF-κB factor p65 were used as controls (FIG. 26D). SMYD5 knockdown reduced basal HIV-1 transcription by ˜50% mirroring the knockdown efficiency of shRNA #2 (FIG. 26D). In independent experiments to investigate the biological role of SMYD5 during HIV transcription, HeLa cells were transfected with an HIV LTR luciferase construct and expression vectors for Tat and SMYD5. Overexpression of SMYD5 marked activation of a co-transfected viral LTR-luciferase reporter construct was observed (FIGS. 28A and 28B). To identify the target for SMYD5 in HIV-1 infection, we performed in vitro methylation assays with recombinant SMYD5 on purified human histones, Tat (aa 1-72) [SEQ ID NO. 39], NF-κB, RelA, Sp1, and P-TEFb components cyclin T1 and CDK9. Reactions included 3H-SAM and were performed with or without recombinant SMYD5 enzyme. After gel electrophoresis, coomassie staining and autoradiography no methylation was detected for RelA, Sp1, cyclin T1 and CDK9 (FIG. 27). However, histones H3 and H1 were weakly and Tat strongly methylated by SMYD5 (FIG. 27). To map the site of methylation in Tat, we performed in vitro methylation reactions using non-radiolabeled SAM and subjected them to reversed-phase liquid chromatography electrospray tandem mass spectrometry (LC-MS/MS). This analysis identified a single site, trimethylation of K41, identified in two distinct peptides (not shown). No mono or dimethylation at Tat K41 was observed.

[1] = system: J-Lat A72 cell line (LTR-GFP)
Method: J-Lat (clones A2 and A72) cell lines were cultured as described in Jordan et al., EMBO J. 2003 Apr. 15:22(8):1868-77. Human αCD3/αCD28 beads (Life Technologies) were used at a concentration of 1 bead/cell ratio. JQ1 (Sigma-Aldrich) was used at a concentration of 0.1-10 μM. Ingenol 3,20-dibenzoate (Sigma-Aldrich) was used at concentrations of 5-200 nM, and SAHA (Sigma-Aldrich) was used at concentrations of 110 nM, 330 nM, or 1 μM.
HEK293T cells were obtained from the American Type Culture Collection. J-Lat (clones A2, A72, and 5A8) cell lines were described (Chan et al., 2013; Jordan et al., 2003). HEK293T cells were cultured in DMEM supplemented with 10% FBS, 1% L-glutamine and 1% penicillin-streptomycin (Life Technologies). J-Lat cells were cultured in RPMI supplemented with 10% FBS, 1% L-glutamine and 1% penicillin-streptomycin (Life Technologies). […] TNFα (Sigma-Aldrich) was used at 0.5-10 ng/ml. Human αCD3/αCD28 Dynabeads (Invitrogen) were used at a 1 bead/cell ratio. JQ1 (Cayman Chemical) was used at 0.1-10 μM. Ingenol 3,20-dibenzoate (Santa Cruz Biotechnology) was used at 5-200 nM, and SAHA (Merck) was used at 110 nM, 330 nM, or 1 μM. Phorbol 12-myristate 13-acetate (PMA) (Sigma) was used at 10 nM and ionomycin (Sigma) was used at a concentration of 500 nM. UNC926 (Tocris Bioscience) was used at a concentration of 10 nM-100 μM. AZ505. AZ506, and AZ391 were used at a concentration of 10 nM-10 μM.
ShRNA-expressing lentiviral vectors were purchased from Sigma-Aldrich. The pLKO.1 vector containing a scrambled shRNA was used as control. […] J-Lat 5A8, A72 and A2 cells were spininfected with virus (1 ng of p24 per 10^6 cells) containing shRNAs against KMTs or nontargeting control shRNAs and were selected with puronycin (2 μg/ml: Sigma). After 7 days of selection, cells were treated with the indicated concentration of drugs. The percentage of GFP^+ cells was determined after 18 h using a MACSQuant VYB FACS analyzer (Miltenyi Biotech GmbH). Cell viability was monitored by forward-and-side scatter analysis. Analysis was conducted on 3×10,000 live cells per condition. Data were analyzed using FlowJo 9.5 (Tree Star).

[2] = cited from earlier work
[3] = system: J-Lat cells (clone A2: LTR-Tat-IRES-GFP); assay type: cell-based; details: A2 J-Lat cells, single agent
Method: To test this hypothesis, J-Lat cells (clone A2: LTR-Tat-IRES-GFP) were treated with SMYD2 inhibitors. […] Both cell lines were co-treated with X2 and Ingenol 3,20-dibenzoate (a protein kinase C (PKC) activator), JQ1 (BET-bromodomain inhibitor), or the histone deacetylase (HDAC) inhibitor suberoylanilidehydroxamic acid (SAHA).

SMYD2 = SMYD2 (Homo sapiens, UniProt Q9NRG4); details: cited from earlier work
L3MBTL1 = biological target: T1, L3MBTL1 (Homo sapiens, UniProt Q9Y468); details: cited from earlier work
T1 sequence (Q9Y468 1-840): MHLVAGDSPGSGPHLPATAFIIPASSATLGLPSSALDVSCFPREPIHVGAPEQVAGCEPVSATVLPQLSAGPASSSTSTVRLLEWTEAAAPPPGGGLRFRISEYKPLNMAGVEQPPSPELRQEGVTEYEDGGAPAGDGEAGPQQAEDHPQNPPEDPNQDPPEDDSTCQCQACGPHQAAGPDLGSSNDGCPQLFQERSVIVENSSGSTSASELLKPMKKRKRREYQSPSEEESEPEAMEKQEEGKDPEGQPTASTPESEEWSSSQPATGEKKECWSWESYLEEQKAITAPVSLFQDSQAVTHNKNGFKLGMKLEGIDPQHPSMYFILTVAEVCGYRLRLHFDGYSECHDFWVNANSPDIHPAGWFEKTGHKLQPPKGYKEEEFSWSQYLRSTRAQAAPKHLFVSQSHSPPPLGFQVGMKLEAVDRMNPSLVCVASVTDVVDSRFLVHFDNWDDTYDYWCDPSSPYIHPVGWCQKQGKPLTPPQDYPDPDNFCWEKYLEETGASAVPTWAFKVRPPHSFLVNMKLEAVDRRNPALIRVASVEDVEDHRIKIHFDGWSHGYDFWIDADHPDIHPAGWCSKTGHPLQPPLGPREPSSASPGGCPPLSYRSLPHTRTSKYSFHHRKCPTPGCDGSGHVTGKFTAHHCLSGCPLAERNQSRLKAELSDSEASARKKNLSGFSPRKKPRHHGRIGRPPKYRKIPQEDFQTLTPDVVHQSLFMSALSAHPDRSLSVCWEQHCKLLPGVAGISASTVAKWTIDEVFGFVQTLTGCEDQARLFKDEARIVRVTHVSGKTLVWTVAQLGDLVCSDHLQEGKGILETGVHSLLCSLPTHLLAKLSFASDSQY

Sequence of SMYD2 (Q9NRG4 whole entry): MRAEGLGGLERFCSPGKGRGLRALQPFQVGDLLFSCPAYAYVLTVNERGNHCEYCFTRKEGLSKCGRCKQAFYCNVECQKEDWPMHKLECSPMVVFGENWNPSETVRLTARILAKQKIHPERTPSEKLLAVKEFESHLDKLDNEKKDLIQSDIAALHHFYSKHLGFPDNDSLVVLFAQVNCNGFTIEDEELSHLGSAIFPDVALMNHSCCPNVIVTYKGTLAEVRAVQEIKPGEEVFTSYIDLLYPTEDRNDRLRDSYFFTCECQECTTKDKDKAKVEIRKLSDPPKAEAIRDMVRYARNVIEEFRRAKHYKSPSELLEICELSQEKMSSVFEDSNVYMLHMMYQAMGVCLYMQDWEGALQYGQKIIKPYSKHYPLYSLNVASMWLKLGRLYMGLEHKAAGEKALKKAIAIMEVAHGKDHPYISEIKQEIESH

shRNA #2: lentiviral shRNA targeting SMYD5 (SEQ ID NO:75) (CCGGCTGTGACACTCTGGAGTTGAACTCGAGTTCAACTCCAGAGTGTCACAGTTTTTTG)
SMYD5 knockdown efficiency by qPCR (J-Lat 5A8 cells): ~50%
reduction of basal HIV-1 transcription (viral LTR RNA, RT-qPCR) (J-Lat 5A8 cells; nonactivated cells): ~50%
reactivation of viral latency (GFP) after CD3/28 antibody stimulation (J-Lat 5A8 cells): suppressed reactivation of viral latency

O=C(NCCCN1CCCC1)c1cncc(-c2ccccc2N2CCN(CCc3c[nH]c4ccccc34)CC2)c1 [AZ506]
activation of GFP expression / reactivation of the HIV-LTR ([1]; A72 J-Lat cells, single agent): activated GFP expression at high concentrations
cell permeability [2]: cell-permeable

shRNA #1: lentiviral shRNA targeting SMYD5 (SEQ ID NO:74) (CCGGGCTATGGGAATTACAACCCATCTCGAGATGGGTTGTAATTCCCATAGCTTTTTTG)
SMYD5 knockdown efficiency by qPCR (J-Lat 5A8 cells): failed
reactivation of viral latency (GFP) after CD3/28 antibody stimulation (J-Lat 5A8 cells): had no effect

O=C1COc2c(CCNCCN(C(=O)CCNCCc3ccc(Cl)c(Cl)c3)C3CCCCC3)ccc(O)c2N1 [AZ505, N-cyclohexyl-3-((3,4-dichlorophenethyl)amino)-N-(2-((2-(5-hydroxy-3-oxo-3,4-dihydro-2H-benzo[b][1,4]oxazin-8-yl)ethyl)amino)ethyl)propanamide bis(2,2,2-trifluoroacetate), reference compound]
activation of HIV transcription / reactivation of the HIV-LTR (GFP) [3]: failure of AZ505 to effectively activate HIV transcription
Kd compared with the p53 peptide (SMYD2): approximately sevenfold lower than the p53 peptide
cell permeability ([2]; bis(2,2,2-trifluoroacetate)): lack of cell permeability; also recorded: not cell-penetrable

UNC926 [reference compound]
concentration at which activation is observed ([1]; A72, 10 nM-100 μM, without or with 0.1 ng/ml TNFα, 18 h): 100 µM
viability by forward-side scatter analysis ([1]; A72, up to 100 μM, 18 h): No effect on viability
basal transcriptional activity ([1]; A72 J-Lat cells): a doubling in basal transcriptional activity
Kd (L3MBTL1): 3.9 µM
